Laboratory results from a melting point compilation (Tetko et al.; mined from patent text by program, amines drawn as free bases though some values may be those of a salt).

Row | SMILES | melting point [°C]
1 | COc1ccc2c(c1)cc(CO)n2C | 158
2 | CCc1c(Cl)c(Oc2ncc(C(F)(F)F)cc2Cl)nn1C(=O)NC | 88 to 89
3 | ClC1=NC(Cl)(C(Cl)(Cl)Cl)N=C1Cl | 66 to 68
4 | COc1cccc(-c2noc3cc(F)ccc23)c1 | 68 to 69
5 | O=C(O)CCC1(c2ccc(Cl)c(Cl)c2)CCC(=O)NC1=O (single isomer, unassigned; (+)) | 201
6 | O=C(CCCCCCCCc1ccc(Cl)cc1)NO | 48 to 50
7 | NOc1ccc2c(c1)CCCC2=O | 55.5 to 57
8 | O=C1Nc2sccc2C(=O)N2CC[C@@H]12 | 272 to 274
9 | Cc1c(C)c(O)c(CN(C)C)c(C)c1O | 103 to 108
10 | CCC1CC(=O)CC2CCC3C4CCC(OC(C)=O)C4(C)CCC3C12C (stereo not given) | 159
11 | N#CN=C(N)NCCCCNC(=O)C1(NC(=O)CCCC(=O)O)Cc2ccccc2C1 | 105
12 | Cc1noc(-c2ccc(F)cc2N)n1 | 146 to 148
13 | CCCn1c(=O)sc2cc(F)c(-n3c(=O)cc(CC)[nH]c3=O)cc21 | > 250
14 | CNC(=O)Nc1cc(C(Cl)(Cl)Cl)ccn1 | 192 to 195
15 | CCOC(=O)CC[C@H](NC(=O)CCc1cc(Cl)ccc1C(=O)CCCNC(C)=O)C(=O)OCC | 109 to 111
16 | C[C@H](NC(=O)OC(C)(C)C)C(=O)NCc1cccc(Nc2n[nH]c3ncnc(Nc4cccc(Cl)c4)c23)c1 | 150 to 153
17 | CC(=O)C(C)Sc1cc(C(C)(C)C)c(O)c(C(C)(C)C)c1 (stereo not given) | 94 to 97
18 | NC(=O)C(NC(=O)OCc1ccccc1)C(O)CO (stereo not given) | 175 to 176
19 | CC(C)(C)OC(=O)[C@@H]1CC[C@H](CC(=O)O)N1Cc1ccccc1 | 95 to 96
20 | CCCCCCCCNC(=O)/C=C\SC(=O)c1ccc(F)cc1 | 87 to 91
21 | CCOC(=O)OC1Oc2ccc(OS(C)(=O)=O)cc2C1(C)C (stereo not given) | 85 to 87
22 | COC(=O)c1ccc(NCCCCCCCCCCCCCCCCBr)cc1 | 92 to 93

Row | SMILES | melting point [°C]
23 | CNC(=O)c1nnn(Cc2ccccc2)c1N | 151 to 153
24 | O=C(C1=C(N2CCCC2)CCC1)c1cccnc1Cl | 102 to 104
25 | CCOCc1nc2c(N)nc(C)c(C)c2n1CCCNC(=O)N1CCOCC1 | 140 to 142
26 | CCCCCCC(=O)c1ccc2cc(OC)c(OC)cc2c1 | 77 to 78
27 | CCc1cccc2c(C(N)CO)c[nH]c12 (stereo not given) | 84 to 86
28 | CCNC1=NS(=O)(=O)c2cc(F)c(F)cc2N1 | 246 to 252
29 | COC(=O)[C@H](CS)NC(=O)[C@H](CO)NC(=O)OC(C)(C)C | 72 to 74
30 | Cc1nc2c(N)nc3ccccc3c2n1CCCC1(C)OCCO1 | 193 to 195
31 | CC(C)C1(C)N=C(c2nc3scc([N+](=O)[O-])c3cc2C(=O)O)NC1=O (stereo not given) | 260
32 | C=CCCN1CCN(c2nc(C)c(C(=O)NCc3cccnc3)s2)C1=O | 144 to 145
33 | CC(C)Nc1cccc2c1C(=O)c1cccc(NC(C)C)c1C2=O | 170 to 172
34 | NC(=O)NNc1c(Cl)cccc1Cl | 288 to 290
35 | COc1ccc(CC(=O)O)c(OCCCc2cn(-c3ccc(C(F)(F)F)cn3)nc2C(C)C)c1 | 143 to 144
36 | CCOC(=O)CCCOc1ccc(C(N)=O)c(OCC2CCCCC2)c1 | 98 to 99
37 | COc1ccc(Cn2c(C(=O)O)c(-c3ccc4c(c3)OCO4)c3cc(OCC(=O)O)ccc32)c(OCC(=O)O)c1 | 203 to 205
38 | CC(/C=C/c1ccccc1)=C\C(=O)NCCCCCC(=O)NO | 147 to 149
39 | Fc1ccc(OCCCCCCN2CCN(c3nccs3)CC2)cc1 | 58 to 60
40 | CCOC(=O)c1cccc(-n2cccc2)c1 | 62 to 64
41 | Clc1ccc(COC(CNc2ccc(Cl)cc2Cl)Cn2ccnc2)cc1 (stereo not given) | 93 to 95
42 | CC(C)(C)C(=O)COc1ccc(Cl)cc1Cl | 65
43 | COCCOc1cc(/C=C/C(=O)NS(=O)(=O)CCC(C)C)n(Cc2ccc(Cl)cc2Cl)n1 | 110 to 114
44 | CCOc1nn(Cc2ccc(OCc3nc(-c4ccco4)oc3C)cc2)cc1CCC(=O)O | 129 to 130

Row | SMILES | melting point [°C]
45 | CC(=O)NCC1CC1c1cccc2nc(C)sc12 (stereo not given) | 96 to 98
46 | COc1ccc(C(O)c2nn(C)c3c2CCc2c(C(N)=O)sc(Oc4ccc5c(c4)OCO5)c2-3)cc1 (stereo not given) | 187 to 188
47 | COC1=C(OC)C(=O)C(CCCCCCCCCCCCO)=C(C)C1=O | 63
48 | C=COCCONC(=O)c1cc(Br)c(F)c(F)c1Nc1ccc(I)cc1F | 128 to 130
49 | C=CCOc1ccccc1OCC(O)CNC1CCC(NC(=O)NCC)CC1 (stereo not given) | 159 to 160
50 | Cc1ccc(C(=O)NC/C=C\COc2cc(CN3CCCCC3)ccn2)s1 | 71 to 73
51 | S=C(NCCCc1ccccc1)Nc1nccs1 | 126 to 128
52 | CN1C(=O)CC[C@]2(C)c3ccc(-c4ccc(F)c(F)c4)cc3CC[C@@H]12 | 143 to 148
53 | CC(C(=O)N(C)C)n1ccc(-c2cc(Cl)ccc2Cl)n1 (stereo not given) | 73.5 to 76.5
54 | CCOC(=O)c1oc2c(C(=O)c3ccccc3)ccc(OC)c2c1C | 137 to 139
55 | COc1ccc(OCCCCCCCc2cc(C)no2)c([N+](=O)[O-])c1 | 51
56 | N#Cc1ccc2c([N+](=O)[O-])cc3c(c2c1)C(CCl)CN3 (stereo not given) | 231 to 234
57 | COCc1cc(O)c2cccc(OC)c2n1 | 193 to 195
58 | CN(C(=O)c1ccc(N)cc1)[C@@H]1CN(C2CCCCC2)C[C@H]1O (relative stereo) | 180 to 182
59 | CN(SC(Cl)(Cl)Cl)c1nc(C(Cl)(Cl)Cl)ns1 | 106
60 | Cc1cc(Nc2cc(-c3cccc(N4CCc5c(cc6n5CCCC6)C4=O)c3CO)cn(C)c2=O)n[nH]1 | 199 to 200
61 | Nc1cccc2c1CC=CC2 | 37 to 39
62 | CC(C)CC(=O)N[C@H]1CC[C@H](CCN2CCN(c3nccc4c3OCC4)CC2)CC1 | 187
63 | COc1cncnc1N1CCN(CCCc2c[nH]c3ccc(CN(C)S(C)(=O)=O)cc23)CC1 | 164 to 165
64 | CC(C)CN(C(=O)N(CCCl)N=O)C1OC(OC2CCCCC2)C(O)C(O)C1O (stereo not given) | 74 to 76
65 | CP(C)(=O)CNc1cc(Oc2ncc(Cl)cc2Cl)ccc1[N+](=O)[O-] | 153 to 155
66 | Cc1nnc(-c2ccc3occ(-c4cnn(C)c4)c3c2)o1 | 147 to 148

The remaining lines, values ahead:

Row | melting point [°C] | SMILES
67 | 85 to 87 | O=C1NC(=O)C(c2ccc(OCCC(c3ccccc3)(c3ccccc3)c3ccccc3)cc2)S1 (stereo not given)
68 | 53 to 54 | C#CC1(OC(=O)NCc2ccccc2)CCN(CCC=C(c2ccc(F)cc2)c2ccc(F)cc2)CC1
69 | 218 to 220 | COc1ccc2c(=O)cc(-c3n[nH]c4ccccc34)oc2c1
70 | 131 | CCOC(=O)NC(=NCCC(c1ccccc1)c1ccc(F)cc1)NCCCc1c[nH]cn1 (stereo not given)
71 | 258 to 259 | CCCCc1nc2ccc(C(=O)O)cc2n1Cc1ccc(-c2ccccc2-c2nnn[nH]2)cc1
72 | 94 to 96 | COC(=O)C(Oc1ccc(Cl)c2c1CCC2)c1ccc(Oc2ccc(Cl)cc2)cc1 (stereo not given)
73 | 170 to 174 | O=C(O)c1ccc(NCc2cccc(Cl)c2)cn1
74 | 247 to 248 | O=C(Nc1ccccc1)N1CCc2cc(S(=O)(=O)N3CC(c4ccccc4)NC3=O)ccc21 (stereo not given)
75 | > 250 | COc1cccc(OC)c1CNC(=O)c1ccc2c(c1)C(=NNc1ccc(S(N)(=O)=O)cc1)C(=O)N2
76 | 250 to 260 | O=[N+]([O-])c1ccc(C=Cc2nc(Nc3ccc(O)cc3)c3ccccc3n2)o1
77 | 193 to 195 | O=C(Nc1ccc(CCc2ccc(O)c(O)c2)cc1)C(=O)c1sc2ccccc2c1O
78 | 248 to 249 | COc1ccc(OCc2cccc(OCc3ccc4ccccc4n3)c2)c(C(=O)O)c1
79 | 169 to 170 | O=c1ccn(CCO)c(C(O)c2ccccc2)c1OCc1ccccc1 (single isomer, unassigned; (+))
80 | 122 to 123 | O=C1CC(c2ccccc2)Cc2c1ccn2Cc1ccccc1 (stereo not given)
81 | 111 to 112 | CS(=O)(=O)c1ccc(-c2ccc(C=O)n2-c2ccc(F)cc2)cc1
82 | 170 to 171 | COC(=O)c1cccc(CSc2c(O)cc(-c3ccccc3)oc2=O)c1
83 | 87 to 89 | Cc1cc(C)cc(C(=O)N2CCN(C(=O)CNC3CCN(Cc4ccc(-c5ccccc5)cc4)CC3)C(c3ccc(Cl)c(Cl)c3)C2)c1 (racemic)

Row | melting point [°C] | SMILES
84 | 315 to 316 | COc1ccc(C(=O)Nc2ccc(S(N)(=O)=O)cc2)c(SSc2cc(OC)ccc2C(=O)Nc2ccc(S(N)(=O)=O)cc2)c1
85 | 222 to 224 | c1ccc(COc2ccc(-c3ccc(OCc4ccccc4)cc3)cc2)cc1
86 | 250 to 251 | NS(=O)(=O)c1cc(C(=O)O)cc(OCc2ccccc2)c1Cc1ccccc1
87 | 320 | O=c1ccc2c(=O)c3ccccc3ccc2[nH]1
88 | 91 to 92 | CC1=CC(OC(=O)c2ccccc2)C(O)C(C)(C)CC1=O (stereo not given)
89 | 115 to 116 | O=C(Cc1ccccc1)Nc1ccccc1
90 | 226 to 228 | NCc1cccnc1C1CCN(c2c(F)c(N)c3c(=O)c(C(=O)O)cn(C4CC4)c3c2F)C1 (stereo not given)
91 | 189 to 191 | COc1cc2oc(=O)c3c(c2cc1OC)CCN(Cc1ccccc1)C3
92 | 177 to 179 | Cc1c(CC(C)(C)C(=O)O)n(Cc2ccc(Cl)cc2)c2ccc(OCc3ccc(-c4ccccc4)cn3)cc12
93 | 239 to 240 | CNC(=O)c1c(-c2ccccn2)c2ccccc2n(C)c1=O
94 | 46.5 to 47.5 | COc1ccccc1OCCN(Cc1ccccc1)C(=O)CCc1c[nH]c2ccccc12
95 | 228 | CS(=O)(=O)NC(=O)c1cc(Oc2c(Cl)cc(Cl)cc2Cl)ccc1[N+](=O)[O-]
96 | 70.1 to 71 | O=C(NCCc1ccccc1Cl)c1ccccc1
97 | 159 to 160 | Cc1nc2c(N)nc3ccccc3c2n1CCOCc1ccccc1
98 | 132 to 134 | CCCCc1nc2ccccc2n1Cc1ccc(-c2ccccc2C(=O)OC)cc1
99 | 123 to 124 | c1ccc(COc2ccc(CNn3cncn3)cc2)cc1
100 | 194 to 195 | Cc1ccc(C(=O)Nc2ccc(CN3CCCCC3)c(C(F)(F)F)c2)cc1-c1ccc2cnncc2c1
